The text below walks through data of PMC9316317, “Reducing the Kidney Uptake of High Contrast CXCR4 PET Imaging Agents via Linker Modifications” (Pharmaceutics, 2022).

As a reminder, the pKa is the pH at which an ionisable group is half protonated. Broadly, the tissue uptake is the percentage of the injected dose found per gram of tissue.

For series [1] the following is noted: quoted in discussion, approximate; ammonium salt of N-methylpiperidine; carboxylate in aspartate; no reference given; cited from earlier work. The text has this: The placement of three consecutive charged amino acids may increase the pKa of the neighboring carboxylate due to unfavorable electrostatic repulsions. The sulfonate has a lower pKa than a carboxylate (approximately −1.7 versus 1.9 in aspartate), and as such, may be able to better retain its negative charge, thereby increasing the excretion of the radiotracer from the kidneys. However, there was no difference in LogD7.4 values between [^68Ga]Ga-BL02 and [^68Ga]Ga-BL31. The increased capacity to hold a negative cha ...

In series [2] the test system is CXCR4-expressing Daudi xenograft mice. The conditions noted are these: mouse, in vivo, iv.
Description: (§1) Male NOD.Cg-Rag1tm1Mom Il2rgtm1Wjl/SzJ (NRG) mice were obtained from an in-house breeding colony at the Animal Resource Centre of the BC Cancer Research Centre, Vancouver, Canada. Mice (6–10 weeks old, 25–30 g weight) were subcutaneously inoculated with 5 × 10^6 Daudi cells (100 μL; 1:1 ratio of PBS/Matrigel) on the left flank.
(§2) Additional groups of mice received 7.5 µg (0.25–0.3 mg/kg) LY2510924 as a blocking control i.p. 15 min before radiotracer injection, and euthanized 1 h p.i. Tissues were harvested, washed in PBS, blotted dry, and weighed, and radioactivity was counted on a Hidex AMG Automatic Gamma Counter. The counts were decay corrected, converted to absolute units using a calibration curve, and expressed as percent injected dose per gram of tissue (%ID/g).
Another series is described as follows: in vivo. The conditions noted are these: male, NOD.Cg-Rag1tm1Mom Il2rgtm1Wjl/SzJ (NRG), mouse, iv, total radioactivity.
The next series has as its system mCXCR4. Further details: method as in PMID 29212254. The conditions noted are these: cited from earlier work.

Where two headings read alike, the source gives them in different places. Where a SMILES comes first, the peptide text is derived from it. Bridges are numbered along the chain shown (N, C = ends). Side-chain parts run from the residue outwards. [ ]: non-standard residue; d: D form. The star is where a group is joined. DOTA = O=C(O)CN1CCN(CC(=O)O)CCN(CC(=O)*)CCN(CC(=O)O)CC1; 2Nal = N[C@@H](Cc1ccc2ccccc2c1)C(=O)O; Lys(iPr) = CC(C)NCCCC[C@H](N)C(=O)O

Description for in vivo: as §1, §2

For `CN1CCCCC1` [N-methylpiperidine], the pKa result in series [1] is “approximately 10.08”.
In series [2] (1 h), `CC(C)NCCCC[C@@H]1NC(=O)[C@H](Cc2ccc(O)cc2)NC(=O)[C@H](Cc2ccccc2)NC(=O)CC[C@H](C(=O)N[C@@H](CCCCNC(C)C)C(=O)N[C@@H](CCCCNC(=O)[C@H](CCC(=O)O)NC(=O)[C@H](CCC(=O)O)NC(=O)[C@H](CCC(=O)O)NC(=O)CN2CCN(CC(=O)O)CCN(CC(=O)O)CCN(CC(=O)O)CC2)C(N)=O)NC(=O)CNC(=O)[C@H](Cc2ccc3ccccc3c2)NC(=O)[C@@H](CCCNC(=N)N)NC1=O` [[68Ga]Ga-BL02, metal not drawn] (FY[Lys(iPr)][dR][2Nal]G[dE][Lys(iPr)]K([Glu-Glu-Glu-DOTA])-NH2; lactam N-7 (inferred); C-terminus assumed) had a Blood uptake of 0.27 ± 0.06 %ID/g, a Liver uptake of 0.57 ± 0.07 %ID/g, a Lung uptake of 0.45 ± 0.08 %ID/g and a Spleen uptake of 0.47 ± 0.22 %ID/g. Besides, in series [2] (2 h), the Kidney uptake came to 3.40 ± 0.51 %ID/g, the Liver uptake is on record as 0.54 ± 0.04 %ID/g and the Lung uptake was 0.27 ± 0.09 %ID/g. Moreover, in the series “in vivo” (Kidney uptake), the tissue uptake at 1 h is 3.81 ± 0.86 %ID/g.
On to `CC(C)NCCCC[C@@H]1NC(=O)[C@H](Cc2ccc(O)cc2)NC(=O)[C@H](Cc2ccccc2)NC(=O)CC[C@H](C(=O)N[C@@H](CCCCNC(C)C)C(=O)N[C@@H](CCCCNC(=O)[C@@H](CCC(=O)O)NC(=O)[C@@H](CCC(=O)O)NC(=O)[C@@H](CCC(=O)O)NC(=O)CN2CCN(CC(=O)O)CCN(CC(=O)O)CCN(CC(=O)O)CC2)C(N)=O)NC(=O)CNC(=O)[C@H](Cc2ccc3ccccc3c2)NC(=O)[C@@H](CCCNC(=N)N)NC1=O` [[68Ga]Ga-BL20, metal not drawn] (FY[Lys(iPr)][dR][2Nal]G[dE][Lys(iPr)]K([dE-dE-dE-DOTA])-NH2; lactam N-7), for which the tissue uptake at 1 h in “in vivo” (Tumor uptake (Daudi xenograft)) turned out to be 0.59 %ID/g.
In the case of `N[C@@H](CC(=O)O)C(=O)O` [aspartate], the pKa in series [1] was around 1.9.
Consider LY2510924, for which, in the series on mCXCR4, the “decrease in affinity to mCXCR4 as compared to hCXCR4” value is recorded as above 1000 fold.
